For one compound, inhibition, EC50 and Ki results are on record in ChEMBL document CHEMBL1148572, “1-((S)-2-aminopropyl)-1H-indazol-6-ol: a potent peripherally acting 5-HT2 receptor agonist with ocular hypotensive activity” (J Med Chem, 2006).

Data set [1] concerns the target Muscarinic acetylcholine receptor (Homo sapiens) (UniProt P20309+P08173+P11229+P08172+P08912). Kind of data set: Inhibition of non selective binding to muscarinic receptor at 10 uM. It is filed as protein assay.
Data set [2] concerns the target T1, monoamine oxidase A (MAO-A) (Rattus norvegicus, UniProt P21396).
T1 sequence (P21396 whole entry): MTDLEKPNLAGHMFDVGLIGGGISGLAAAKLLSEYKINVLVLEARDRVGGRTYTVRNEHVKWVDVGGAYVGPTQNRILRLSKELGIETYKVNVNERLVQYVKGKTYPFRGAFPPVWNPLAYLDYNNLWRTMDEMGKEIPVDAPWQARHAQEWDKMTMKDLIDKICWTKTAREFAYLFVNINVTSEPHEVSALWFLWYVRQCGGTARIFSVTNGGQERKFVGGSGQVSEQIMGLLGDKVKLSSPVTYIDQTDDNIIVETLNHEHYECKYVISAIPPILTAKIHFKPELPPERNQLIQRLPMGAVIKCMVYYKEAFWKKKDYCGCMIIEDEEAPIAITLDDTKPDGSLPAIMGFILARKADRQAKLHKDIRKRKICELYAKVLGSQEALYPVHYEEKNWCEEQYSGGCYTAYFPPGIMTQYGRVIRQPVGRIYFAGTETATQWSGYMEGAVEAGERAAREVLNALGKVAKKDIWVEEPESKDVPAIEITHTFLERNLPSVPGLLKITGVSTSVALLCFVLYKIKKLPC
Kind of data set: Inhibition of monoamine oxidase A in rat brain at 10 uM. Type of data set: tissue-based.

For data set [3], the target named is Estrogen receptor (Homo sapiens) (UniProt Q92731+P03372). Kind of data set: Inhibition of estrogen receptor at 100 nM. Type of data set: protein assay.
The target in data set [4] is Protein kinase C, PKC; classical/novel (Homo sapiens) (UniProt O94806+P17252+P05129+Q05655+P05771+Q02156+P24723+Q15139+Q04759). Kind of data set: Inhibition of PDBu activated protein kinase C at 100 nM. It is filed as protein assay.
Data set [5] addresses T2, Atrial natriuretic peptide receptor 1 (Homo sapiens) (UniProt P16066).
T2 sequence (whole entry): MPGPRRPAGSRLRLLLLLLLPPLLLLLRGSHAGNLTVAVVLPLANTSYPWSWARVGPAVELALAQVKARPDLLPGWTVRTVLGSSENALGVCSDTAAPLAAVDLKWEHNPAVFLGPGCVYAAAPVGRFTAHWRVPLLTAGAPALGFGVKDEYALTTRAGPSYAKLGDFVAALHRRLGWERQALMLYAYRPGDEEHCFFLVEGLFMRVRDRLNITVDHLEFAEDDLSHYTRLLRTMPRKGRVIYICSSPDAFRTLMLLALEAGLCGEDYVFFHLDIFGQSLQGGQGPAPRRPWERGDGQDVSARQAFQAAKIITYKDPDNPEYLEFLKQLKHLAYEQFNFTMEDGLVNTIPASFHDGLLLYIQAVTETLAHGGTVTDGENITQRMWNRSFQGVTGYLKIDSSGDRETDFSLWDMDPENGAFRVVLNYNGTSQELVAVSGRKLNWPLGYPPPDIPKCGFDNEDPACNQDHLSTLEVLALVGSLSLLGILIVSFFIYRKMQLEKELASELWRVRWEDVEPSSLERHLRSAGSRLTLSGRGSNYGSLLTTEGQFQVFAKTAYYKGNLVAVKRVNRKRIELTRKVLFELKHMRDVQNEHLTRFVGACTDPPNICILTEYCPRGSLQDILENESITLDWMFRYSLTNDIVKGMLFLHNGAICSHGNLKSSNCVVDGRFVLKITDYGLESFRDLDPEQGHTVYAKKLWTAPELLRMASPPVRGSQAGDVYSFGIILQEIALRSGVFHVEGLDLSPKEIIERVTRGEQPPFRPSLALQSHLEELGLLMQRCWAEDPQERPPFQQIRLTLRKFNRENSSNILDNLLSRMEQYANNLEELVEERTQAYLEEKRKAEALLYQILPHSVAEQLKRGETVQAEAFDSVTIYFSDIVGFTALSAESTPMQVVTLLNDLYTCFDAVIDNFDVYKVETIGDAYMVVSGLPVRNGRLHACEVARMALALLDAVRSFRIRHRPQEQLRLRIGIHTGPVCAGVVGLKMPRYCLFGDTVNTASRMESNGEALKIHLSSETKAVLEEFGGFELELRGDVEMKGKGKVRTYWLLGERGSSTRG
Put plainly: Inhibition of ANP A at 10 uM.

In data set [6] the target is Platelet-activating factor receptor (Homo sapiens) (UniProt P25105). Put plainly: Inhibition of PAF at 10 uM.
Platelet-activating factor receptor (Homo sapiens), sequence (P25105 whole entry): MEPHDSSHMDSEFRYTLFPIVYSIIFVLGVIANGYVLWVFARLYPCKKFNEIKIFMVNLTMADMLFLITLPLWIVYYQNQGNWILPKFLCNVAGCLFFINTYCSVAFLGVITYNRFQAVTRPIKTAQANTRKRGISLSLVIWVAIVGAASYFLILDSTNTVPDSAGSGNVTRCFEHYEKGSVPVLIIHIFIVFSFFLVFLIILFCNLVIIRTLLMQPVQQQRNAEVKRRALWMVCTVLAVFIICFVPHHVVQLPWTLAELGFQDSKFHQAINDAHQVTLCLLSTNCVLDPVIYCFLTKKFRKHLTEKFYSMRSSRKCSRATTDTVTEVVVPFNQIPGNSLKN
In data set [7] the target is T3, B2 bradykinin receptor (Homo sapiens) (UniProt P30411).
T3 sequence (whole entry): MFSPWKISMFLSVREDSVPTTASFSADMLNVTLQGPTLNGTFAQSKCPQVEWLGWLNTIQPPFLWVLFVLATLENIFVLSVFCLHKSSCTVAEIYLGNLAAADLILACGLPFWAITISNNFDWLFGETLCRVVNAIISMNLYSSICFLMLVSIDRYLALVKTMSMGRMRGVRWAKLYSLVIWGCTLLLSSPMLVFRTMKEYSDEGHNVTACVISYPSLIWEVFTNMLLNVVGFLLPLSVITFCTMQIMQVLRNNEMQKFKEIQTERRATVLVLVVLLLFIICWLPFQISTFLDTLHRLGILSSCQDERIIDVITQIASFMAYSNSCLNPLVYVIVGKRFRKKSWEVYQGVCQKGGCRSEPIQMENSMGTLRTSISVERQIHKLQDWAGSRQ
Put plainly: Inhibition of bradykinin 2 receptor at 1 nM.

For data set [8], the target named is 5-hydroxytryptamine receptor 2B (Rattus norvegicus, UniProt P30994). Kind of data set: Activity against 5HT2B receptor in longitudinal stomach fundus strips in wistar rats.
5-hydroxytryptamine receptor 2B, sequence (P30994 whole entry): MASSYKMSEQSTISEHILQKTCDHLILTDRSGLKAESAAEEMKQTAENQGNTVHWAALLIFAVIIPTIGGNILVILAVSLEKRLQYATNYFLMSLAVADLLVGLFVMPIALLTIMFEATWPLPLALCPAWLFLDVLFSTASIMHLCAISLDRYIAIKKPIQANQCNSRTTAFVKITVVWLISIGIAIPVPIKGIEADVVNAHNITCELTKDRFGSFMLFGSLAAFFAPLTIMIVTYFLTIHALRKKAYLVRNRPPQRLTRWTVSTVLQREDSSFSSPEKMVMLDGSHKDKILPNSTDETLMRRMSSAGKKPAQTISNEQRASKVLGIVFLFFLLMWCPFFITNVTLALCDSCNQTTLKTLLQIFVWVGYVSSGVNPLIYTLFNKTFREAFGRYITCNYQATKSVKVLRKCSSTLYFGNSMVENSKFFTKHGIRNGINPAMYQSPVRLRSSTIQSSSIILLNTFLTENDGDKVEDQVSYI
Data set [9] concerns the target 5-hydroxytryptamine receptor 6 (Homo sapiens, UniProt P50406). Put plainly: Inhibitory activity against 5HT6 receptor.
Data set [10] addresses T4, 5-hydroxytryptamine receptor 1A (Homo sapiens, UniProt P08908).
T4 sequence (P08908 whole entry): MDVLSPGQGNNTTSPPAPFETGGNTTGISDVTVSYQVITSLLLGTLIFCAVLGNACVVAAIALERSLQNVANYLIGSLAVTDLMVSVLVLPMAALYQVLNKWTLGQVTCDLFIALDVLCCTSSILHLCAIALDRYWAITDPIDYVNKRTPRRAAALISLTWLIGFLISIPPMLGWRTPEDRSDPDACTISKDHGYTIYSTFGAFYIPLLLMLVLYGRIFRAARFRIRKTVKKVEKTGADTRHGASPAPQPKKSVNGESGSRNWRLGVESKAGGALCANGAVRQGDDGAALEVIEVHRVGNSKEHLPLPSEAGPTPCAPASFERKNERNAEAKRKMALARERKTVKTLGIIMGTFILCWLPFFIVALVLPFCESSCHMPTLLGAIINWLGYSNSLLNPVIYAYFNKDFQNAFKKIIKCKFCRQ
Kind of data set: Agonistic activity at cloned human 5HT1A receptor expressed in CHO cells by inhibition of forskolin-induced cAMP production. It is filed as functional, cell-based. On the technique in general: Changes in cAMP serve as a functional read-out for many G protein-coupled receptors.

5-hydroxytryptamine receptor 6, sequence (P50406 whole entry): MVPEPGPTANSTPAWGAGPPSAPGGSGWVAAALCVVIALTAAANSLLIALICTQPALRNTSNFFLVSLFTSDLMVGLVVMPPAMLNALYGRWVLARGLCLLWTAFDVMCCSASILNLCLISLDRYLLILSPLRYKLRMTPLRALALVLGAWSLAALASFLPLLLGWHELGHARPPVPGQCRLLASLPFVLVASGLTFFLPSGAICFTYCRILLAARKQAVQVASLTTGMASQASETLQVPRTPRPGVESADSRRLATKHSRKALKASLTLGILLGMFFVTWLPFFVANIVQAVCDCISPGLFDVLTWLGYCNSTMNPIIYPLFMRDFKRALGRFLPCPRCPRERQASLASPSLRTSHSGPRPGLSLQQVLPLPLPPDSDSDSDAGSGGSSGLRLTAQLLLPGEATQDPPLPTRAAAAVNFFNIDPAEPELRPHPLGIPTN

As usually defined, the inhibition is the change of the read-out against control, counted positive when it falls. Usually EC50 stands for the midpoint of the concentration-response curve. Higher therefore signals weaker potency. Usually Ki stands for a measure of affinity in units of concentration, obtained from inhibition or displacement. A higher Ki goes with a looser hold on the target. For the compound `C[C@H](N)Cn1ncc2ccc(O)cc21`, the inhibition in [1] was 12.2%; in [3] it was 13.3%; in data set [4], 11.3%; in data set [5] it was -5.3%; in data set [6], 34.4%; in [7], -6.46%. For the same compound, the inhibition at 10 µM in data set [2] was 0.82%. For the same compound, the figures for the EC50 in [8] and in [10] were 2 nM and 1460 nM, respectively. Also, the Ki in [9] is greater than 10000 nM.
